The supplement of paper PMC11451515

Assays:
Conditions in all cases: 48 h
[1] = tested on: P12-Ichikawa; assay: cell viability relative to DMSO control; higher = less cytotoxic
Method in brief: (§1)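 Viability was expressed as a per-plate percentage of DMSO wells, with cell-free wells as background. Leukemia cells (NOMO1 or SEM at 500 cells/well, P12-Ichikawa at 1000 cells/well) were adapted for at least four passages in each medium and seeded in 1536-well plates (5 μl). Library compounds in DMSO were pin-dosed over an 11-point threefold series from 47 μM to 0.79 nM, and CellTiter-Glo One luminescence was read after 48 h at 37°C.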

[2] = tested on: NOMO1; assay: as above
Method in brief: as §1

[3] = tested on: SEM cells; assay: as above
Method in brief: as §1

[4] = tested on: P12-Ichikawa; assay: AUC of viability dose-response curve (% viability x log10 dose units); higher = less sensitive
Method in brief: (§2)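 Seeding of medium-adapted leukemia cells was at 500 or 1000 cells/well in 1536-well plates, followed by 48 h at 37°C with library compounds in DMSO at 11 threefold doses from 47 μM to 0.79 nM. CellTiter-Glo One luminescence was normalised per plate to DMSO and cell-free wells and fitted as a four-parameter log-logistic function of log10 dose. Area under the curve was integrated by trapezoidal rule, with curves exceeding full viability scaled and curves failing quality control removed.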

[5] = tested on: NOMO1; assay: as above
Method in brief: as §2

[6] = tested on: SEM cells; assay: as above
Method in brief: as §2

CC1(C)O[C@H]2CC(=O)OC[C@]23[C@H]2CC[C@@]4(C)[C@H](c5ccoc5)OC(=O)[C@H]5O[C@]54[C@]2(C)C(=O)C[C@@H]13
cell viability [%]
Conditions | [1] | [2] | [3]
HPLM + 10% dialyzed FBS, 0.000781 µM | 95.9 | 114 | 84.1
HPLM + 10% dialyzed FBS, 0.00234 µM | 107 | 91.3 | 86.8
HPLM + 10% dialyzed FBS, 0.00702 µM | 101 | 98.8 | 95.3
HPLM + 10% dialyzed FBS, 0.0211 µM | 105 | 84.5 | 96.2
HPLM + 10% dialyzed FBS, 0.0632 µM | 110 | 99.4 | 108
HPLM + 10% dialyzed FBS, 0.19 µM | 110 | 110 | 106
HPLM + 10% dialyzed FBS, 0.569 µM | 115 | 99.2 | 104
HPLM + 10% dialyzed FBS, 1.71 µM | 102 | 115 | 105
HPLM + 10% dialyzed FBS, 5.12 µM | 115 | 114 | 96.7
HPLM + 10% dialyzed FBS, 15.4 µM | 99.5 | 103 | 89.4
HPLM + 10% dialyzed FBS, 46.1 µM | 110 | 87.7 | 98.7
RPMI 5 mM glucose + 10% FBS, 0.000781 µM | 88.3 | 96.8 | 83.8
RPMI 5 mM glucose + 10% FBS, 0.00234 µM | 102 | 89.8 | 98.8
RPMI 5 mM glucose + 10% FBS, 0.00702 µM | 102 | 93.7 | 98.4
RPMI 5 mM glucose + 10% FBS, 0.0211 µM | 93.8 | 96.1 | 88.8
RPMI 5 mM glucose + 10% FBS, 0.0632 µM | 98.4 | 101 | 99.2
RPMI 5 mM glucose + 10% FBS, 0.19 µM | 107 | 105 | 86
RPMI 5 mM glucose + 10% FBS, 0.569 µM | 106 | 98.9 | 105
RPMI 5 mM glucose + 10% FBS, 1.71 µM | 95.6 | 108 | 88.2
RPMI 5 mM glucose + 10% FBS, 5.12 µM | 107 | 98.4 | 96.5
RPMI 5 mM glucose + 10% FBS, 15.4 µM | 105 | 103 | 85.2
RPMI 5 mM glucose + 10% FBS, 46.1 µM | 112 | 97.8 | 93.2
RPMI 5 mM glucose + 10% dialyzed FBS, 0.000781 µM | 90.8 | 87.2 | 74.6
RPMI 5 mM glucose + 10% dialyzed FBS, 0.00234 µM | 96.2 | 95.7 | 102
RPMI 5 mM glucose + 10% dialyzed FBS, 0.00702 µM | 104 | 83 | 97.5
RPMI 5 mM glucose + 10% dialyzed FBS, 0.0211 µM | 97.6 | 101 | 83.1
RPMI 5 mM glucose + 10% dialyzed FBS, 0.0632 µM | 105 | 102 | 99
RPMI 5 mM glucose + 10% dialyzed FBS, 0.19 µM | 95.2 | 98.5 | 90
RPMI 5 mM glucose + 10% dialyzed FBS, 0.569 µM | 101 | 96.7 | 109
RPMI 5 mM glucose + 10% dialyzed FBS, 1.71 µM | 100 | 110 | 76.6
RPMI 5 mM glucose + 10% dialyzed FBS, 5.12 µM | 96.1 | 99.1 | 84.8
RPMI 5 mM glucose + 10% dialyzed FBS, 15.4 µM | 98.2 | 109 | 102
RPMI 5 mM glucose + 10% dialyzed FBS, 46.1 µM | 96.7 | 98 | 90

AUC of viability dose-response curve
Conditions | [4] | [5] | [6]
HPLM + 10% dialyzed FBS | 468 | 462 | 463
RPMI 5 mM glucose + 10% FBS | 446 | 465 | 444
RPMI 5 mM glucose + 10% dialyzed FBS | 469 | 461 | 438

C[C@@H](Oc1cc(-n2cnc3ccc(CN4CCN(C)CC4)cc32)sc1C(N)=O)c1ccccc1C(F)(F)F
AUC of viability dose-response curve
Conditions | [4] | [5] | [6]
HPLM + 10% dialyzed FBS | 208 | 280 | 233
RPMI 5 mM glucose + 10% FBS | 202 | 246 | 214
RPMI 5 mM glucose + 10% dialyzed FBS | 214 | 255 | 234

O=C1[O][Pt]2([NH]C3CCCCC3[NH]2)[O]C1=O (centres undefined)
cell viability [%]
Conditions | [1] | [2] | [3]
HPLM + 10% dialyzed FBS, 0.000781 µM | 19.4 | 116 | 95.9
HPLM + 10% dialyzed FBS, 0.00234 µM | 112 | 118 | 110
HPLM + 10% dialyzed FBS, 0.00702 µM | 115 | 119 | 102
HPLM + 10% dialyzed FBS, 0.0211 µM | 111 | 107 | 107
HPLM + 10% dialyzed FBS, 0.0632 µM | 118 | 141 | 105
HPLM + 10% dialyzed FBS, 0.19 µM | 113 | 118 | 108
HPLM + 10% dialyzed FBS, 0.569 µM | 118 | 131 | 101
HPLM + 10% dialyzed FBS, 1.71 µM | 114 | 120 | 91.5
HPLM + 10% dialyzed FBS, 5.12 µM | 62.4 | 90.2 | 27
HPLM + 10% dialyzed FBS, 15.4 µM | 2.95 | 14.7 | 3.68
HPLM + 10% dialyzed FBS, 46.1 µM | 3.39 | 7.1 | 4.13
RPMI 5 mM glucose + 10% FBS, 0.000781 µM | 106 | 108 | 74
RPMI 5 mM glucose + 10% FBS, 0.00234 µM | 109 | 103 | 77.5
RPMI 5 mM glucose + 10% FBS, 0.00702 µM | 106 | 120 | 69
RPMI 5 mM glucose + 10% FBS, 0.0211 µM | 118 | 119 | 66.6
RPMI 5 mM glucose + 10% FBS, 0.0632 µM | 115 | 110 | 83.8
RPMI 5 mM glucose + 10% FBS, 0.19 µM | 123 | 135 | 84
RPMI 5 mM glucose + 10% FBS, 0.569 µM | 128 | 115 | 81.7
RPMI 5 mM glucose + 10% FBS, 1.71 µM | 117 | 107 | 60.3
RPMI 5 mM glucose + 10% FBS, 5.12 µM | 70 | 90.4 | 15
RPMI 5 mM glucose + 10% FBS, 15.4 µM | 3.56 | 17.6 | 2.66
RPMI 5 mM glucose + 10% FBS, 46.1 µM | 2.67 | 5.82 | 2.68
RPMI 5 mM glucose + 10% dialyzed FBS, 0.000781 µM | 111 | 107 | 84.7
RPMI 5 mM glucose + 10% dialyzed FBS, 0.00234 µM | 115 | 108 | 97.5
RPMI 5 mM glucose + 10% dialyzed FBS, 0.00702 µM | 121 | 100 | 104
RPMI 5 mM glucose + 10% dialyzed FBS, 0.0211 µM | 119 | 110 | 114
RPMI 5 mM glucose + 10% dialyzed FBS, 0.0632 µM | 119 | 109 | 108
RPMI 5 mM glucose + 10% dialyzed FBS, 0.19 µM | 113 | 122 | 102
RPMI 5 mM glucose + 10% dialyzed FBS, 0.569 µM | 114 | 108 | 118
RPMI 5 mM glucose + 10% dialyzed FBS, 1.71 µM | 113 | 112 | 91.3
RPMI 5 mM glucose + 10% dialyzed FBS, 5.12 µM | 79 | 98.4 | 42.6
RPMI 5 mM glucose + 10% dialyzed FBS, 15.4 µM | 7.33 | 38.3 | 3.5
RPMI 5 mM glucose + 10% dialyzed FBS, 46.1 µM | 2.85 | 9.17 | 3.34

[5]
Conditions | AUC of viability dose-response curve
HPLM + 10% dialyzed FBS | 400
RPMI 5 mM glucose + 10% FBS | 403
RPMI 5 mM glucose + 10% dialyzed FBS | 419
